For this test, the system named is H69: human, small cell lung carcinoma. The experiment in a line: Apoptosis (Annexin testing system) and defective cells in H69 tumor cells in vitro. Type of test: cell-based. To be noted: 10 days of treatment. The text has this: The effect of reduced glutathion (G-SH) and anthocyans and betacyans on tumor cell lines, specifically H69: human, small cell lung carcinoma, was examined by in vitro studies, both individually and with various combinations of the ingredient. G-SH and betalain were used in the form of dry extract from beta vulgaris (product: Betatom by Messrs. Sprüh-Atom Schumann & Sohn GmbH, Karlsruhe) and, for purposes of comparison, anthocyans in the form of dry extract from cassis (black currant) and vaccinium (blueberry). The tumor cells were sown in vitro in DMEM with 10% FCS. The final concentration of G-SH, Betatom, cassis and vaccinium, the substances added, was 1 mM. Apoptosis was measured with an Annexin testing system. All tests were repeated once. The effect on H69 tumor cells may be gathered from the table below. After treatment of the cells for ten days, the number both of apoptotic and defective cells was clearly higher in comparison with untreated controls.

[1] abbreviates: 1 mM, difference to untreated control.
The mark [2] stands for this setting: final concentration of substances added 1 mM, DMEM with 10% FCS.

This note sets out measurements from patent US20080138395A1, “Pharmaceutical Composition for the Prevention and Control of Cancer” (priority 2005, published 2008).

As for `N[C@@H](CCC(=O)N[C@@H](CS)C(=O)NCC(=O)O)C(=O)O` [GSH, gamma glutamyl cysteinyl glycin], under setting [1], the “apoptotic cells: variation compared with control (%)” value was −5% and the “defective cells: variation compared with control (%)” value was found to be 8.9%. Moreover, under setting [2], the “apoptotic cells (% of total cells)” value is listed as 21.9 % of total cells and the “defective cells (% of total cells)” value is 37.9 % of total cells.
